Consider 48 compounds from patent US8633183B2 (priority 2010, dated 2014).

In the assay the target is PI3Kalpha (Homo sapiens (Human), UniProt P42336). Conditions: read-out: IC50 PI3K.
PI3Kalpha, sequence (P42336 whole entry, looked up): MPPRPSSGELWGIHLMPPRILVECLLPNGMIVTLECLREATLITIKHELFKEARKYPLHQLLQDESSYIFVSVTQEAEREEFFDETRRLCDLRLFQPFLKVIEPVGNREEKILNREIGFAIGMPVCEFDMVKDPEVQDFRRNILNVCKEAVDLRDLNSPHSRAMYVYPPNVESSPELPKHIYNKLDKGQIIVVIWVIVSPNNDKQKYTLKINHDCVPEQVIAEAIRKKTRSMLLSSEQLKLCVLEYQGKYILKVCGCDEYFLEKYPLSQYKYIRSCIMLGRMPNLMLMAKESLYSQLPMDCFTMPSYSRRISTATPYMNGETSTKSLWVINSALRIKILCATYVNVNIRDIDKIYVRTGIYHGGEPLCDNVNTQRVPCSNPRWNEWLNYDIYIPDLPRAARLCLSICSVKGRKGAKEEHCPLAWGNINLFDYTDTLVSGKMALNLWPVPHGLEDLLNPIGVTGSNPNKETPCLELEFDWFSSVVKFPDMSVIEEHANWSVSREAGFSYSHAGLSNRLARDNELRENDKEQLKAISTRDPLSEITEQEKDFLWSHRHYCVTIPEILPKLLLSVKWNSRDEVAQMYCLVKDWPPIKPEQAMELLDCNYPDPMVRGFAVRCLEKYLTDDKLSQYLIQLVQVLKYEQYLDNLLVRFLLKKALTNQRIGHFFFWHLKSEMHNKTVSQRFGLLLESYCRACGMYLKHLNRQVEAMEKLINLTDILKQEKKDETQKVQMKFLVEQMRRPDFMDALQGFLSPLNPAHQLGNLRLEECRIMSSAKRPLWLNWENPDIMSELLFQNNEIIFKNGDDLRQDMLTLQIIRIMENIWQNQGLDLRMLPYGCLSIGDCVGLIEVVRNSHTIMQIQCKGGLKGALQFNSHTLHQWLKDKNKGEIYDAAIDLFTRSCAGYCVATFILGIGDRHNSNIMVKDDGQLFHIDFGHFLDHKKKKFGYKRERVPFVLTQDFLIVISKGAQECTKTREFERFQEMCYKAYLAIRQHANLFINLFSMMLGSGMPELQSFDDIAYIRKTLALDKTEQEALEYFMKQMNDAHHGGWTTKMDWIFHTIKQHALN
As for `CCc1ncnc(-c2ccc(C(=O)N3CCN(c4ccccc4)CC3)c(Cl)c2)c1C#Cc1ccc(N)nc1` [Example D-39], the half-maximal inhibitory concentration (IC50) – broadly, the concentration needed to halve the response being measured – was found to be 89 nM.
With `CCc1ncnc(-c2ccc(C(=O)N3CCN(CC(F)F)CC3)c(Cl)c2)c1C#Cc1ccc(N)nc1` [Example D-41], the IC50 was found to be 177 nM.
For `CCc1ncnc(-c2ccc(C(=O)N3CCN(C(C)(C)C)CC3)c(Cl)c2)c1C#Cc1ccc(N)nc1` [Example D-43] the value was 436 nM.
Consider `CCc1ncnc(-c2ccc(C(=O)N3CCNC(=O)C3)c(Cl)c2)c1C#Cc1ccc(N)nc1` [Example D-44], for which the IC50 stood at 27 nM.
On to `CCc1ncnc(-c2ccc(C(=O)N3CCN(CC)CC3)c(Cl)c2)c1C#Cc1ccc(N)nc1` [Example D-45], for which the concentration for half-maximal inhibition (IC50) was 186 nM.
On to `CCc1ncnc(-c2ccc(C(=O)N3CCN(C(C)=O)CC3)c(Cl)c2)c1C#Cc1ccc(N)nc1` [Example D-46], for which the IC50 worked out at 97 nM.
In the case of `CCc1ncnc(-c2ccc(C(=O)N3CCN(CC(F)F)CC3)c(OC)c2)c1C#Cc1ccc(N)nc1` [Example D-47], the 50% inhibitory concentration (IC50) came to 63 nM.
For `CCc1ncnc(-c2ccc(C(=O)N3CCN(C(C)(C)C)CC3)c(OC)c2)c1C#Cc1ccc(N)nc1` [Example D-48] the value was 251 nM.
For `CCc1ncnc(-c2ccc(C(=O)N3CCN(C(C)C)CC3)c(OC)c2)c1C#Cc1ccc(N)nc1` [Example D-50] the value was 211 nM; for `CCc1ncnc(-c2ccc(C(=O)N3CCN(CCOC)CC3)c(OC)c2)c1C#Cc1ccc(N)nc1` [Example D-52], 134 nM.
On to `CCc1ncnc(-c2ccc(C(=O)N3CCN(CC)CC3)c(OC)c2)c1C#Cc1ccc(N)nc1` [Example D-53], for which the IC50 came to 213 nM.
Turning to `CCc1ncnc(-c2ccc(C(=O)N3CCN(CC(F)(F)F)CC3)c(OC)c2)c1C#Cc1ccc(N)nc1` [Example D-54], the half-inhibitory concentration (IC50) was 81 nM.
As for `CCc1ncnc(-c2ccc(C(=O)N3CCN(S(=O)(=O)CC)CC3)c(OC)c2)c1C#Cc1ccc(N)nc1` [Example D-55], the half-inhibitory concentration (IC50) worked out at 36 nM.
Turning to `CCc1ncnc(-c2ccc(C(=O)N3CCN(C(C)=O)CC3)c(OC)c2)c1C#Cc1ccc(N)nc1` [Example D-56], the concentration for half-maximal inhibition (IC50) turned out to be 73 nM.
Regarding `CCc1ncnc(-c2ccc(C(=O)N3CCN(CCO)CC3)c(OC)c2)c1C#Cc1ccc(N)nc1` [Example D-57], the concentration for half-maximal inhibition (IC50) came out at 152 nM.
`CCc1ncnc(-c2ccc(C(=O)N3CCNC(=O)C3)c(OC)c2)c1C#Cc1ccc(N)nc1` [Example D-59]: the IC50 was found to be 19 nM.
`CCc1ncnc(-c2ccc(C(=O)N3CCN(CCN(C)C)CC3)c(OC)c2)c1C#Cc1ccc(N)nc1` [Example D-60]: the IC50 came to 546 nM.
`CCc1ncnc(-c2ccc(C(=O)N3CCN(CC(F)F)CC3)c(F)c2)c1C#Cc1ccc(N)nc1` [Example D-61]: the IC50 amounted to 86 nM.
As for `CCc1ncnc(-c2ccc(C(=O)N3CCC(N4CCN(C)CC4)CC3)c(F)c2)c1C#Cc1ccc(N)nc1` [Example D-62], the figure is 205 nM; as for `CCc1ncnc(-c2ccc(C(=O)N3CCC(N4CCOCC4)CC3)c(F)c2)c1C#Cc1ccc(N)nc1` [Example D-63], 234 nM; as for `CCc1ncnc(-c2ccc(C(=O)N3CCN(C4CCN(C)CC4)CC3)c(F)c2)c1C#Cc1ccc(N)nc1` [Example D-64], 198 nM.
On to `CCc1ncnc(-c2ccc(C(=O)NC3CCN(C)CC3)c(F)c2)c1C#Cc1ccc(N)nc1` [Example D-65], for which the IC50 was determined as 436 nM.
With `CCc1ncnc(-c2ccc(C(=O)N3CCC(N4CCN(C5CCN(C)CC5)CC4)CC3)c(F)c2)c1C#Cc1ccc(N)nc1` [Example D-67], the half-inhibitory concentration (IC50) worked out at 244 nM.
For `CCc1ncnc(-c2ccc(C(=O)N(C)O)c(F)c2)c1C#Cc1ccc(N)nc1` [Example D-68] the value was 42 nM; for `CCc1ncnc(-c2ccc(C(=O)N3CCN(CC(F)(F)F)CC3)c(F)c2)c1C#Cc1ccc(N)nc1` [Example D-69], 133 nM.
Regarding `CCc1ncnc(-c2ccc(C(=O)N3CCC(N4CCCCC4)CC3)c(F)c2)c1C#Cc1ccc(N)nc1` [Example D-70], the IC50 is 490 nM.
On to `CCc1ncnc(-c2ccc(C(=O)N3CCC(O)CC3)c(F)c2)c1C#Cc1ccc(N)nc1` [Example D-71], for which the IC50 was found to be 85 nM.
For `CCc1ncnc(-c2ccc(C(=O)N(C)CC3CCCN(C)C3)c(F)c2)c1C#Cc1ccc(N)nc1` [Example D-73] the value was 324 nM; for `CCc1ncnc(-c2ccc(C(=O)NCC3CCCN(C)C3)c(F)c2)c1C#Cc1ccc(N)nc1` [Example D-74], 630 nM.
Consider `CCc1ncnc(-c2ccc(C(=O)NCC3CCN(C)C3)c(F)c2)c1C#Cc1ccc(N)nc1` [Example D-75], for which the IC50 is 335 nM.
Turning to `CCc1ncnc(-c2ccc(C(=O)N(C)CC3CCN(C)CC3)c(F)c2)c1C#Cc1ccc(N)nc1` [Example D-76], the concentration for half-maximal inhibition (IC50) amounted to 339 nM.
As for `CCc1ncnc(-c2ccc(C(=O)NCC3CCN(C)CC3)c(F)c2)c1C#Cc1ccc(N)nc1` [Example D-77], the IC50 worked out at 303 nM.
Regarding `CCc1ncnc(-c2ccc(C(=O)N3CCC(C(C)(C)O)CC3)c(F)c2)c1C#Cc1ccc(N)nc1` [Example D-79], the IC50 came to 170 nM.
Consider `CCc1ncnc(-c2ccc(C(=O)N(C)CC(C)(C)O)c(F)c2)c1C#Cc1ccc(N)nc1` [Example D-81], for which the half-maximal inhibitory concentration (IC50) was found to be 84 nM.
As for `CCc1ncnc(-c2ccc(C(=O)N3CCN(C(C)=O)CC3)c(F)c2)c1C#Cc1ccc(N)nc1C` [Example D-82], the figure is 146 nM; as for `CCCCN1CCN(C(=O)c2ccc(-c3ncnc(CC)c3C#Cc3ccc(N)nc3)cc2F)CC1` [Example D-83], 219 nM.
Take `CCc1ncnc(-c2ccc(C(=O)N3CCN(C4CCOCC4)CC3)c(F)c2)c1C#Cc1ccc(N)nc1` [Example D-84]: the IC50 was determined as 127 nM.
As to `CCc1ncnc(-c2ccc(C(=O)N3CCN(CC(=O)N(C)C)CC3)c(F)c2)c1C#Cc1ccc(N)nc1` [Example D-85], the IC50 is 115 nM.
For the compound `CCc1ncnc(-c2ccc(C(=O)N3CCN(C4CCS(=O)(=O)C4)CC3)c(F)c2)c1C#Cc1ccc(N)nc1` [Example D-86], the IC50 was found to be 95 nM.
With `CCc1ncnc(-c2ccc(C(=O)N3CCN4CCCCC4C3)c(F)c2)c1C#Cc1ccc(N)nc1` [Example D-87], the 50% inhibitory concentration (IC50) amounted to 233 nM.
For `CCc1ncnc(-c2ccc(C(=O)N3CCN(CC4CCCO4)CC3)c(F)c2)c1C#Cc1ccc(N)nc1` [Example D-88], the half-maximal inhibitory concentration (IC50) was 118 nM.
As to `CCc1ncnc(-c2ccc(C(=O)N3CCN(S(=O)(=O)CC)CC3)c(F)c2)c1C#Cc1ccc(N)nc1` [Example D-89], the half-inhibitory concentration (IC50) came to 52 nM.
Take `CCc1ncnc(-c2ccc(C(=O)N3CCN(C(C)=O)CC3)c(F)c2)c1C#Cc1ccc(N)nc1` [Example D-90]: the IC50 is 62 nM.
For the compound `CCc1ncnc(-c2ccc(C(=O)N3CCN(CCO)CC3)c(F)c2)c1C#Cc1ccc(N)nc1` [Example D-91], the IC50 stood at 109 nM.
Turning to `CCc1ncnc(-c2ccc(C(=O)N3CCN(c4ccccn4)CC3)c(F)c2)c1C#Cc1ccc(N)nc1` [Example D-92], the 50% inhibitory concentration (IC50) is 124 nM.
As to `CCc1ncnc(-c2ccc(C(=O)N3CCN(c4ccncc4)CC3)c(F)c2)c1C#Cc1ccc(N)nc1` [Example D-93], the IC50 is 266 nM.
For the compound `CCc1ncnc(-c2ccc(C(=O)N3CCN(CC4CCCCC4)CC3)c(F)c2)c1C#Cc1ccc(N)nc1` [Example D-94], the IC50 was 1820 nM.
Turning to `CCc1ncnc(-c2ccc(C(=O)N3CCN(CCOC)CC3)c(F)c2)c1C#Cc1ccc(N)nc1` [Example D-95], the 50% inhibitory concentration (IC50) was 145 nM.
